Assay results published in doi:10.1101/2023.10.01.560353v1 (bioRxiv, 2023).
In brackets after ≈: the same amount, converted by molar mass. Peptide text beside a SMILES is read from it.

Legend:
[1] = tested on: A. baumannii ATCC 19606; assay: MIC, broth microdilution; assay type: cell-based, Acinetobacter baumannii; settings: broth microdilution in LB, 20 h at 37 °C, OD600; mean of three replicates
[2] = tested on: 11 clinically relevant bacterial pathogens; assay: MIC over the panel of pathogens; assay type: cell-based; settings: Table S17; lowest MIC over the strains tested
[3] = tested on: A. baumannii ATCC 19606; assay: Neutropenic thigh infection mouse model; assay type: in vivo, CD-1 mice; settings: single intraperitoneal dose at MIC, n = 6
[4] = tested on: A. baumannii ATCC19606; assay: Outer membrane permeabilization, NPN uptake; assay type: cell-based, Acinetobacter baumannii; settings: peptide at its MIC; polymyxin B as positive control; three replicates

SMILES	Minimal Inhibitory Concentration: A. baumannii ATCC19606 [1] [µmol/L]	MIC (lowest MIC value obtained in the antimicrobial activity assays) [2] [mM]	reduction of the bacterial load four days post-treatment [3]	outer membrane permeabilization (NPN uptake) [4]
CC[C@H](C)[C@H](NC(=O)[C@H](CO)NC(=O)[C@H](CCCNC(=N)N)NC(=O)[C@H](C)NC(=O)[C@H](Cc1c[nH]cn1)NC(=O)[C@H](CC(C)C)NC(=O)[C@H](CS)NC(=O)[C@H](C)NC(=O)[C@@H](N)CCCNC(=N)N)C(=O)N[C@@H](C)C(=O)N[C@@H](CCCNC(=N)N)C(=O)N[C@@H](CC(C)C)C(=O)N[C@@H](Cc1c[nH]cn1)C(=O)N[C@@H](CCCCN)C(=O)N[C@@H](CCCNC(=N)N)C(=O)N[C@@H](Cc1c[nH]c2ccccc12)C(=O)N[C@@H](CCCNC(=N)N)C(=O)N1CCC[C@H]1C(=O)N[C@H](C(=O)N[C@@H](Cc1c[nH]cn1)C(=O)N[C@@H](CCC(N)=O)C(=O)NCC(=O)N[C@@H](CC(C)C)C(=O)NCC(=O)N[C@@H](CC(C)C)C(=O)N[C@@H](CCCCN)C(=O)O)C(C)C [Mammuthusin-2] (H-RACLHARSIARLHKRWRPVHQGLGLK-OH)	32	32000 (≈ 97900 mg/mL)	3-4 orders of magnitude	–
CC[C@H](C)[C@H](NC(=O)[C@H](CO)NC(=O)CNC(=O)[C@H](CC(C)C)NC(=O)[C@H](CC(C)C)NC(=O)[C@H](CC(C)C)NC(=O)[C@H](CCCNC(=N)N)NC(=O)[C@H](CCCCN)NC(=O)[C@@H](NC(=O)[C@H](CO)NC(=O)[C@H](CC(N)=O)NC(=O)[C@@H](NC(=O)[C@H](CC(C)C)NC(=O)[C@@H](N)CC(C)C)[C@@H](C)CC)[C@@H](C)CC)C(=O)N[C@@H](CC(C)C)C(=O)O [Arctodutin-1] (H-LLINSIKRLLLGSIL-OH)	–	2000 (≈ 3330 mg/mL)	–	permeabilized the outer membrane
CC[C@H](C)[C@H](N)C(=O)N[C@@H](CO)C(=O)N[C@@H](CC(C)C)C(=O)N[C@@H](Cc1ccccc1)C(=O)N[C@H](C(=O)N[C@@H](CCCNC(=N)N)C(=O)N1CCC[C@H]1C(=O)N[C@@H](CC(C)C)C(=O)N[C@@H](C)C(=O)N[C@@H](CC(C)C)C(=O)NCC(=O)N[C@H](C(=O)N[C@@H](CCCNC(=N)N)C(=O)N[C@@H](CC(C)C)C(=O)O)C(C)C)[C@@H](C)CC [Psephotellin-1] (H-ISLFIRPLALGVRL-OH)	–	16000 (≈ 25100 mg/mL)	–	permeabilized the outer membrane
CC[C@H](C)[C@H](N)C(=O)N[C@@H](Cc1ccccc1)C(=O)N[C@@H](CC(C)C)C(=O)N[C@@H](Cc1c[nH]cn1)C(=O)N[C@@H](CC(C)C)C(=O)N[C@@H](CCCCN)C(=O)N[C@H](C(=O)N[C@@H](CC(C)C)C(=O)N[C@@H](CCCCN)C(=O)N[C@H](C(=O)N[C@H](C(=O)N[C@@H](CCCNC(=N)N)C(=O)N[C@@H](CC(C)C)C(=O)N[C@@H](CC(C)C)C(=O)O)[C@@H](C)CC)[C@@H](C)CC)[C@@H](C)CC [Elephasin-2] (H-IFLHLKILKIIRLL-OH)	1	1000 (≈ 1730 mg/mL)	3-4 orders of magnitude	–
